This data set has as its system p53-responsive element. Description: p53-Luciferase reporter gene assay in UM-22B SCCHN cells. The class given is cell-based. The conditions noted are these: UM-22B p53-Luc, 2 μg transfected, 24 hrs. The procedure: FIG. 8 depicts the inhibition of reporter gene expression from a p53-responsive element in SCCHN cells. An SCCHN cell line, UM-22B, was used to generate a stable cell line expressing a p53-Luciferase (p53-Luc) reporter gene (The p53-Luc plasmid carrying 14 repeats of p53 transcription recognition sequence: 5'-[…] ID NO: 30)), was obtained from Stratagene, Catalog number: 219085-51). The cells were transfected with 2 μg of the STAT3 decoy or the control mutant decoy. At 24 hrs after transfection, luciferase (Luc) activity was measured and normalized to the total amount of protein according to standard methods.

This is an account of results in patent US20060293264A1, “STAT3 decoy oligonucleotides and uses therefor” (priority 2004, published 2006).

As to “STAT3 decoy (sense CATTTCCCGTAAATC; antisense GATTTACGGGAAATG; phosphorothioate modified, further chemistry not given here; listed as Homo sapiens)”, the p53 reporter activity entry is “specifically interfere”.
